According to ChEMBL document CHEMBL1135958, “Hepatobiliary excretion of dipyrrinone sulfonates in Mrp2-deficient (TR(-)) rats” (Bioorg Med Chem Lett, 2002):

Experiment: Pharmacokinetic parameter (Tmax) was estimated
Assay type: ADME, organism-based
Settings: rat, in vivo

- Tmax: 6 min
SMILES: CCC1=C(C)C(=O)N/C1=C\c1[nH]c(C)c(CCS(=O)(=O)O)c1C
